How the values were obtained:
Oryctolagus cuniculus [1] = organism: Oryctolagus cuniculus; test: Antagonist activity against L-type calcium channel in New Zealand white rabbit basilar artery assessed as vasodilation by measuring effect on 50 mM K+-stimulated depolarization-induced constriction at 10 uM; assay type: tissue-based; parameters: scale not given: the % may be the effect or the level left
Oryctolagus cuniculus [2] = organism: Oryctolagus cuniculus; test: Antagonist activity against endothelin A/B2 receptor in New Zealand white rabbit basilar artery assessed as vasodilation by measuring effect on endothelin-1-induced constriction at 10 uM; assay type: tissue-based; parameters: scale not given: the % may be the effect or the level left
[3] = Antagonist activity against endothelin A/B2 receptor in New Zealand white rabbit basilar artery assessed as vasodilation by measuring effect on endothelin-1-induced constriction; assay type: tissue-based, Oryctolagus cuniculus
[4] = Antagonist activity against L-type calcium channel in New Zealand white rabbit basilar artery assessed as vasodilation by measuring effect on 50 mM K+-stimulated depolarization-induced constriction; assay type: tissue-based, Oryctolagus cuniculus

Row | Compound | Activity (Oryctolagus cuniculus [1]) [%] | Activity (Oryctolagus cuniculus [2]) [%] | EC50 [3] [µM] | EC50 [4] [µM]
1 | CCCS(=O)(=O)Nc1cccc(C(=O)/C=C/c2ccc(O)c(OC)c2)c1 | 42.3 | 30.8 |  | 
2 | COc1cc(/C=C/C(=O)c2cccc(NS(=O)(=O)c3ccccc3)c2)ccc1O | 50.4 | 40.2 |  | 
3 | COc1cc(/C=C/C(=O)c2cccc(NS(=O)(=O)c3ccc([N+](=O)[O-])cc3)c2)ccc1O | 70.7 | 98.9 | 3.9 | 
4 | COc1ccc(S(=O)(=O)Nc2cccc(C(=O)/C=C/c3ccc(O)c(OC)c3)c2)cc1 | 26.4 | 56.8 |  | 
5 | COc1cc(/C=C/C(=O)c2cccc(NS(C)(=O)=O)c2)ccc1O | 4.2 | 22.3 |  | 
6 | COc1cc(/C=C/C(=O)c2cccc(NS(=O)(=O)c3cccc(C(F)(F)F)c3)c2)ccc1O | 52.3 | 36.5 |  | 
7 | COc1cc(/C=C/C(=O)c2cccc(NS(=O)(=O)C(F)(F)F)c2)ccc1O | 10.7 | 34.6 |  | 
8 | COc1cc(/C=C/C(=O)c2cccc(NS(=O)(=O)c3ccc(Cl)cc3)c2)ccc1O | 93.4 | 78.3 | 5.9 | 5.58
9 | COc1cc(/C=C/C(=O)c2cccc(NS(=O)(=O)c3ccc(F)cc3)c2)ccc1O | 71.8 | 75.1 | 6.4 | 
10 | COc1cc(/C=C/C(=O)c2cccc(NS(=O)(=O)c3cc(Cl)cc(Cl)c3)c2)ccc1O | 37.3 | 55.9 |  | 
11 | COc1cc(/C=C/C(=O)c2cccc(NS(=O)(=O)c3cccs3)c2)ccc1O | 32.4 | 39.1 |  | 
12 | COc1cc(/C=C/C(=O)c2cccc(NS(=O)(=O)c3cc(Cl)ccc3Cl)c2)ccc1O | 53.4 | 30.4 |  | 
13 | COc1cc(/C=C/C(=O)c2cccc(NS(=O)(=O)c3ccc(OC(F)(F)F)cc3)c2)ccc1O | 76.7 | 81.4 | 6.1 | 
14 | COc1cc(/C=C/C(=O)c2cccc(NS(=O)(=O)c3ccc(C(F)(F)F)cc3)c2)ccc1O | 65.8 | 46.1 |  | 
15 | COc1cc(/C=C/C(=O)c2cccc(NS(=O)(=O)C(C)C)c2)ccc1O | 20.5 | 31.2 |  | 
16 | COc1cc(/C=C/C(=O)c2cccc(NS(=O)(=O)c3ccc(Cl)cc3Cl)c2)ccc1O | 4.2 | 83.4 | 8.8 | 
17 | COc1cc(/C=C/C(=O)c2cccc(NS(=O)(=O)c3ccc(Cl)c(Cl)c3)c2)ccc1O | 30.2 | 41.8 |  | 
18 | COc1cc(/C=C/C(=O)CC(=O)/C=C/c2ccc(O)c(OC)c2)ccc1O [CURCUMIN] | 58.4 | 8.5 | 48.5 | 7.48
19 | COc1cc(/C=C/C(=O)c2cccc(NS(=O)(=O)c3c(Cl)cccc3Cl)c2)ccc1O | 99.4 | 99.8 | 1.8 | 2.78
20 | CCS(=O)(=O)Nc1cccc(C(=O)/C=C/c2ccc(O)c(OC)c2)c1 | 55.3 | 19.7 |  | 
21 | COc1cc(/C=C/C(=O)c2cccc(NS(=O)(=O)c3ccc(C(C)=O)cc3)c2)ccc1O | 67.9 | 68.7 |  | 
22 | COc1cc(/C=C/C(=O)c2cccc(NS(=O)(=O)c3ccc(C)cc3)c2)ccc1O | 98.7 | 99.6 | 2.7 | 3.67

Reference: ChEMBL document CHEMBL3621039, “Synthesis of alkylsulfonyl and substituted benzenesulfonyl curcumin mimics as dual antagonist of L-type Ca(2+) channel and endothelin A/B2 receptor” (Bioorg Med Chem, 2015)
